Results from patent publication EP4670739A1, “ALBUMIN CONJUGATE, METHOD FOR PRODUCING SAME, AND COMPOSITION FOR TARGETING, DIAGNOSING, OR TREATING CANCER COMPRISING SAME” (Kytecbio Co., Ltd., priority 2023, dated 2024).

Experiment: ROS production according to lysine concentration
Settings: 10 µM B3 mixed with about 1.0 mM monomeric lysine, PBS pH 7.4, light of about 530 nm
Procedure: • i) 1.0 mM lysine (hereinafter, Lys) was mixed in PBS buffer solution (pH 7.4) and irradiated with light of about 530 nm. The fluorescence generated over time was measured using a Scinco FS-2, and results thereof are shown in FIG. 7A. • ii) The result of mixing 10 µM boron-containing compound B3 instead of the 1.0 mM lysine (Lys) is shown in FIG. 7B, iii) the result of mixing 10 µM boron-containing compound B3 and 0.1 mM lysine (Lys) instead of the 1.0 mM lysine (Lys) is shown in FIG. 7C, and iv) the result of mixing 10 µM boron-containing compound B3 and 1.0 mM lysine (Lys) instead of the 1.0 mM lysine (Lys) is shown in FIG. 7D.

O=Cc1cc2ccccc2cc1NCc1ccccc1B(O)O [B3]
reactive oxygen species generated: relatively large amount
